Five compounds from patent publication US9834581B2, “Cell penetrating peptides for intracellular delivery of molecules” (AADIGEN, LLC, priority 2012, dated 2017) can be followed below.

Test [1] concerns Hela. Nature of the test: cells. As to the method: Cells were returned to the incubator for 24 hrs.
Effect of VEPEP-4 mediated delivery of doxorubicin has been investigated on cancer cell viability.

The subject of test [2] is HEK2. Nature of the test: cells. Type of test: cell-based. The protocol:
(§1) Adherent HS68 fibroblasts, HeLa, PC3, CEM-SS, U20S, MCF-7, and HEK2 cell lines (from American Type Culture Collection (ATCC)), as well as MEF and PBMC, were cultured in Dulbecco's Modified Eagle's Medium supplemented with 2 mM glutamine, 1% antibiotics (streptomycin 10,000 μg/ml, penicillin, 10,000 IU/ml) and 10% (w/v) foetal calf serum (FCS), at 37° C. in a humidified atmosphere containing 5% CO2. Stock solutions of VEPEP-4/peptide particles were prepared by complexing 1 μM peptide with VEPEP-4 peptides at a molar ratio of 1/20 for 30 min at 37° C. Lower concentrations of VEPEP-4-carrier/peptide (from 500 nM to 1 μM) were obtained by serial dilution of the stock complexes in PBS, in order to preserve the same VEPEP-4-carrier/peptide ratio. 150,000 cells seeded in a 35 mm dish the day prior transfection, were grown to 60% confluence and overlaid with 200 μl of preformed complexes, incubated for 3-5 min, then 400 μl of DMEM were added. After 30 min. incubation at 37° C., 1 ml of fresh DMEM containing 16% foetal calf serum (FCS) was added in order to reach a final FCS concentration of 10%, without removing the overlay of VEPEP-4/peptide complexes. Cells were returned to the incubator for 24 hrs. For CDK2 derived peptides cell proliferation was monitored after 24 and 48 hrs. For peptide-targeting integrase, HIV proliferation was analyzed on activated PBMC cells after 3 and 5 days. Data reported are an average of 3 or 4 distinct experiments.
(§2) VEPEP-4 peptides have been used for the delivery of different small fluorescent hydrophobic and charged molecules as well as doxorubicin on different cell lines including primary cell lines and challenging cell lines. VEPEP-4 peptides form stable particles with small aromatic molecules including doxorubicin. Effect of VEPEP-4 mediated delivery of doxorubicin has been investigated on cancer cell viability. […] The impact of carrier peptides to improve cellular uptake of small molecule drugs was estimated by following inhibition of proliferation of cancer cells.

Test [3] has as its system Peptide (C4). Nature of the test: Fluorescence titration of VEPEP-4 binding to peptide cargo. As to the method:
(§3) Fluorescence experiments were performed on a PTI spectrofluorimeter at 25° C. in a NaCl 154 mM buffer. Intrinsic Trp-fluorescence of VEPEP-4 was excited at 290 nm and emission spectrum was recorded between 310 and 400 nm, with a spectral band-pass of 2 and 8 nm for excitation and emission, respectively. FITC-fluorescence of labelled-peptide was excited at 492 nm and emission recorded between 500 and 580 nm. For VEPEP-4/peptide interaction, 0.5 μM of FITC-labelled peptide was titrated by increasing concentrations of VEPEP-4. All measurements were corrected for the dilution and curve fitting were performed by using Grafit software (Erithacus).
(§4) VEPEP-4i (SEQ ID No: 1) and VEPEP-4j (SEQ ID No: 2) peptides form stable complexes with peptides. The binding of cargos to VEPEP-4 was monitored by fluorescence spectroscopy using the both intrinsic Trp group of VEPEP-4 (4 Trp-residues) and extrinsic fluorescently labeled cargoes (using Cy5 or FITC). Curve fitting reveal that VEPEP-4 strongly binds the different cargoes with dissociation constant in the nanomolar range (Table 1 and FIG. 1).

In test [4] the test system is MCF7. Type of test: cell-based, Human. The protocol: as §1, §2
The nature of test [5]: Fluorescence titration of VEPEP-4 binding to small molecule cargo. As to the method:
as §3
VEPEP-4 peptides also form stable particles with small aromatic molecules including daunomycin, Paclitaxel, doxorubicin, porphyrin and charged molecules including nucleotide, nucleoside and peptide-analogue of nucleic acids or fluorescent dyes. The dissociation constant for small hydrophobic molecule ranges between 0.05 to 2 μM, depending on the nature of the dyes and of the peptides.
Binding of small molecule cargoes has been investigated in detail depending on the nature of the SMH. Several hydrophobic and charges molecules have been use (Daunomycin, Paclitaxel, doxorubicin, porphyrin) and charged molecules (nucleotide, nucleoside and fluorescent dyes).

The subject of test [6] is Cyclic peptide (PC4). Nature of the test: Fluorescence titration of VEPEP-4 binding to cyclic peptide cargo. As to the method: as §3, §4
Test [7] has as its system MEF. Nature of the test: VEPEP-4 mediated delivery of fluorescently labelled peptide (fluorescence microscopy or FACS). Type of test: cell-based, Mouse. Particulars: uptake of fluorescently labelled peptide cargo. The protocol: as §1
(§5) VEPEP-4 peptides have been used for the delivery of different peptides into different cell lines, including primary cell lines, stem cell lines and challenging cell lines. Peptide delivery was monitored using three approaches, fluorescence spectroscopy and monitoring biological responses (anti proliferation and anti viral responses).
(§6) 1—Fluorescently labelled peptide was visualized in the different cell lines using fluorescence microscopy or FACS sorting (Table 3). In most of the cell lines, the uptake of Cy-5 labelled peptides is more than 70% of the cells.

Test [8] relates to U2OS. The description is as above. The format is cell-based, Human. Particulars: uptake of fluorescently labelled peptide cargo. As to the method: as §1, §5, §6
For test [9], the system named is PBMC. The test is described as above. Type of test: cell-based, Human. Particulars: uptake of fluorescently labelled peptide cargo. The protocol: as §1, §5, §6
The subject of test [10] is MCF7. The description is as above. The format is cell-based, Human. Particulars: MCF7, uptake of fluorescently labelled peptide cargo. The protocol:
as §1, §5, §6

Test [11] has as its system HS-68. The description is as above. Type of test: cell-based, Human. Particulars: HS-68, uptake of fluorescently labelled peptide cargo. As to the method: as §1, §5, §6
Test [12] relates to CEM-SS. The test is described as above. The format is cell-based, Human. Particulars: uptake of fluorescently labelled peptide cargo. As to the method: as §1, §5, §6
In test [13] the test system is Hela. The test is described as above. The format is cell-based, Human. Particulars: uptake of fluorescently labelled peptide cargo. As to the method: as §1, §5, §6
Test [14] has as its system HIV-1LAI. The format is cell-based. Particulars: for IC50: 1LAI. As to the method:
as §1
The anti-HIV activities of the peptides (PC4D, PC4S, PC6D, PC6S) and VEPEP-4/peptides complexes were assayed according to previously described method (Roisin et al, 2004). Phytohemagglutinin-P (PHA-P)-activated peripheral blood mononuclear cells (PBMC) treated by increasing concentrations of peptide (from 100 to 0.1 nM), one hour later, were infected with hundred 50% tissue culture infectious doses (TCID50) per 100,000 cells of the HIV-1-LAI or different resistant strains (Barre-Sinoussi et al, 1983). Viruses were amplified in vitro on PHA-P-activated PBMC. Viral stock was titrated using PHA-P-activated PBMC, and 50% TCID50 were calculated using Kärber's formula (Karber 1931). Samples were maintained throughout the culture, and cell supernatants were collected at day 7 post-infection and stored at −20 C. Viral replication was measured by quantifying RT activity in cell culture supernatants. In parallel, cytotoxicity of the compounds was evaluated in uninfected PHA-P-activated PBMC by colorimetric 3-(4-5 dimethylthiazol-2-yl)2,5 diphenyl tetrazolium bromite (MTT) assay on day 7 (Mossmann 1983). Experiments were performed in triplicate and repeated with another blood donor. […]

Like-named read-outs stand apart in the source and are kept apart here. *1 amine or outer side, *2 acyl side, *3 side chain or, on linkers, in order; H or OH if unused. Where a SMILES comes first, the peptide text is derived from it. [ ]: non-standard residue; d: D form. Cysteamide = C(CS[*:3])N[*:1]; βAla = NCCC(=O)O

In general, IC50 refers to the midpoint of a concentration-inhibition curve. Turning to `COc1cccc2c1C(=O)c1c(O)c3c(c(O)c1C2=O)C[C@@](O)(C(=O)CO)C[C@@H]3O[C@H]1C[C@H](N)[C@H](O)[C@H](C)O1` [Doxo, doxorubicin, reference compound], the half-inhibitory concentration (IC50) in test [1] (Homo sapiens, HeLa) was found to be 25000 nM; in [2] (HEK2, Free drug, read-out: IC50) it was 10000 nM. Further, in test [2] (complexed versus free drug, cancer cells of Table 5), the “fold more efficient when complexed with VEPEP-4” value is on record as 25 fold.
The term Kd denotes a measure of binding affinity in units of concentration. A lower Kd goes with tighter binding. For the compound `CC(=O)NCCC(=O)N[C@@H](Cc1c[nH]c2ccccc12)C(=O)N[C@@H](Cc1c[nH]c2ccccc12)C(=O)N[C@@H](CCCNC(=N)N)C(=O)N[C@@H](CC(C)C)C(=O)N[C@@H](CCCNC(=N)N)C(=O)N[C@@H](CO)C(=O)N[C@@H](Cc1c[nH]c2ccccc12)C(=O)N[C@@H](Cc1ccccc1)C(=O)N[C@@H](CCCNC(=N)N)C(=O)NCCS` [Short 3, X1WWRLRSWFR] (Ac-[βAla]WWRLRSWFR-Cysteamide), the Binding result in [3], in test [5] (cargo Doxorubicin), in test [5] (cargo FAM-guanosine), in test [5] (cargo porphyrin) and in test [6] was “yes” in each case. For the same compound, the Kd is 10 to 20 nM in test [3]; 100 nM in test [5] (cargo Doxorubicin); 100 nM in test [5] (cargo FAM-guanosine); 700 nM in test [5] (cargo porphyrin); 50 to 100 nM in test [6]. The IC50 is 900 nM in [4], 1200 nM in test [1] and 1100 nM in test [2].
Take `CC(=O)NCCC(=O)N[C@@H](Cc1c[nH]c2ccccc12)C(=O)N[C@@H](Cc1ccccc1)C(=O)N[C@@H](CCCNC(=N)N)C(=O)N[C@@H](CC(C)C)C(=O)N[C@@H](CO)C(=O)N[C@@H](CC(C)C)C(=O)N[C@@H](CCCNC(=N)N)C(=O)N[C@@H](Cc1ccccc1)C(=O)N[C@@H](Cc1c[nH]c2ccccc12)C(=O)NCCS` [Short 4, X1WFRLSLRFW] (Ac-[βAla]WFRLSLRFW-Cysteamide): the Binding result in test [3], in [5] (cargo Doxorubicin), in test [5] (cargo FAM-guanosine), in test [5] (cargo porphyrin) and in test [6] was “yes” in each case. The equilibrium dissociation constant (Kd) in test [3] was 10 to 20 nM; in test [5] (cargo Doxorubicin), 10 nM; in test [5] (cargo FAM-guanosine), 70 nM; in test [5] (cargo porphyrin) it was 600 nM; in [6] it was 50 to 100 nM. The IC50 stood at 500 nM in [4], 600 nM in [1], 0.37 ± 0.1 nM in test [14] and 500 nM in test [2]. In addition, the Efficiency is on record as 67% in [7]; 65% in test [8]; 65% in test [9]; 78% in test [10]; 87% in test [11]; 74% in [12]. In test [13], the Efficiency is reported as 58%.
`CC(=O)NCCC(=O)N[C@@H](Cc1c[nH]c2ccccc12)C(=O)N[C@@H](Cc1c[nH]c2ccccc12)C(=O)N[C@@H](CCCNC(=N)N)C(=O)N[C@@H](CC(C)C)C(=O)N[C@@H](CO)C(=O)N[C@@H](CC(C)C)C(=O)N[C@@H](CCCNC(=N)N)C(=O)N[C@@H](Cc1c[nH]c2ccccc12)C(=O)N[C@@H](Cc1c[nH]c2ccccc12)C(=O)NCCS` [VEPEP-3i, X1WWRLSLRWW] (Ac-[βAla]WWRLSLRWW-Cysteamide): the Binding result in test [3], in test [5] (cargo Doxorubicin), in [5] (cargo FAM-guanosine), in test [5] (cargo porphyrin) and in test [6] was “yes” in each case. For the same compound, the Kd was 10 to 20 nM in test [3]; 50 nM in test [5] (cargo Doxorubicin); 60 nM in [5] (cargo FAM-guanosine); 400 nM in [5] (cargo porphyrin); 50 to 100 nM in test [6]. For the same compound, the IC50 in [4] stood at 500 nM; in test [1], 1200 nM; in test [14] it was 0.24 ± 0.1 nM; in [2], 400 nM. In addition, the Efficiency in [7] was 84%; in test [8] it was 78%; in test [9] it was 80%; in test [10] it was 50%; in [11], 80%; in [12] it was 70%. In [13], the Efficiency was determined as 65%.
For the compound “TWFTEWFT (Ac-TWFTEWFT-Cysteamide; SMILES CC(=O)N[C@H](C(=O)N[C@@H](Cc1c[nH]c2ccccc12)C(=O)N[C@@H](Cc1ccccc1)C(=O)N[C@H](C(=O)N[C@@H](CCC(=O)O)C(=O)N[C@@H](Cc1c[nH]c2ccccc12)C(=O)N[C@@H](Cc1ccccc1)C(=O)N[C@H](C(=O)NCCS)[C@@H](C)O)[C@@H](C)O)[C@@H](C)O) [PC4S, scrambled peptide, control of PC4D, reference compound]”, in test [14] (scrambled peptide, PBMC infected by HIV-1LAI), the anti viral activity result is “do not show any anti viral activity”.
